Test results taken from PubChem BioAssay (NCI).
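Interpolation was linear, between the two tested concentrations surrounding the appropriate level; five concentrations were tested over 48 hours in 96-well plates. GI50 is the concentration that inhibits growth by half. Definition used: TGI = concentration required for complete inhibition of growth.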

What was measured:
Test in all cases: DTP human tumour cell line panel, 48 h
[1] = test system: CCRF-CEM leukemia
[2] = test system: HOP-62 NSCLC
[3] = test system: K-562 leukemia
[4] = test system: KM12 colon
[5] = test system: MALME-3M melanoma
[6] = test system: MCF7 breast
[7] = test system: SF-539 CNS
[8] = test system: SN12C renal
[9] = test system: SNB-75 CNS
[10] = test system: SW-620 colon

Row | SMILES | GI50 [1] [µM] | TGI [1] [µM] | GI50 [2] [µM] | TGI [2] [µM] | GI50 [3] [µM] | TGI [3] [µM] | GI50 [4] [µM] | TGI [4] [µM] | GI50 [5] [µM] | TGI [5] [µM] | GI50 [6] [µM] | TGI [6] [µM] | GI50 [7] [µM] | TGI [7] [µM] | GI50 [8] [µM] | TGI [8] [µM] | GI50 [9] [µM] | TGI [9] [µM] | GI50 [10] [µM] | TGI [10] [µM]
1 | O=C(NCCOCCOCCOCCNC(=O)c1cc2c(o1)C(=O)c1ccccc1C2=O)NC12CC3CC(CC(C3)C1)C2 | 3.23 | > 100 | 2.03 | 3.53 | 1.98 | 8.91 | 3.34 | 13 | 0.191 | 0.489 | 1.16 | 3.22 | 1.59 | 3.16 | 1.34 | 2.71 | 2.25 | 4.06 | 2.35 | 7.26
2 | COc1ccc(-c2cc(-c3ccc(Cl)cc3)nc(NCCCCNc3ccnc4cc(Cl)ccc34)n2)cc1 | 2.6 | > 100 | 1.69 | 3.44 | 1.83 | 5.02 | 1.9 | 3.72 | 1.75 | 3.36 | 1.82 | 3.73 | 6.8 | 20.9 | 1.5 | 3.18 | 10 | 22.1 | 1.76 | 3.46
3 | c1ccc(Oc2ccc(Nc3ncc(-c4ccccc4)o3)cc2)cc1 | > 25 | > 25 | > 25 | > 25 | > 25 | > 25 | > 25 | > 25 | > 25 | > 25 | > 25 | > 25 | > 25 | > 25 | > 25 | > 25 | > 25 | > 25 | > 25 | > 25
4 | COc1ccccc1[As]=[As]c1ccccc1OC (centres undefined) | 0.026 | 0.113 | 0.05 | 0.164 | 0.0324 | – | 0.11 | 0.24 | 0.0443 | 0.145 | 0.021 | 0.0604 | 0.0383 | 0.144 | 0.0489 | 0.179 | 0.0305 | 0.13 | 0.0182 | 0.0403
5 | CCC(=O)N1C/C(=C/c2ccc(Br)cc2)C(=O)/C(=C/c2ccc(Br)cc2)C1 | 0.88 | 4.6 | 0.259 | 0.829 | 0.183 | 6.1 | 0.186 | 0.553 | 1.69 | 3.63 | 0.271 | 1.56 | 0.706 | 1.79 | 0.424 | 1.58 | 2.34 | 9.71 | 0.22 | 0.82
6 | Cn1cc(C2=C(c3cn(CCCN)c4ccccc34)C(=O)NC2=O)c2ccccc21 | 2.59 | 12.1 | 6.09 | 17 | 4.29 | 14.6 | 5.44 | 14.2 | 5.66 | 10.6 | 3.55 | 10.4 | 3.44 | 6.86 | 4.67 | 18.6 | 0.998 | 5.35 | 4.38 | 9.37
7 | Cc1nc2sc3c(N)ncnc3c2c(C)c1C | > 25 | > 25 | > 25 | > 25 | > 25 | > 25 | > 25 | > 25 | > 25 | > 25 | > 25 | > 25 | > 25 | > 25 | > 25 | > 25 | > 25 | > 25 | > 25 | > 25
8 | O=C1Cc2cc(CCn3cncn3)c(Cl)cc2N1 | 3.5 | > 100 | 29.9 | > 100 | 7.68 | > 100 | 5.42 | > 100 | > 100 | > 100 | 4.02 | > 100 | > 100 | > 100 | > 100 | > 100 | 13.2 | > 100 | 6.6 | > 100
9 | Oc1[nH]c2ccccc2c1/C=c1/ccc2c(c1)N=C(c1ccc(C(F)(F)F)cc1)N=2 | 1.65 | 5.05 | 4.94 | 15.6 | 1.41 | 3.46 | 1.09 | 12.7 | 2.9 | 9.23 | 2.98 | 12.9 | 7.45 | 21.1 | 6.91 | 20.6 | 2.79 | 12.9 | 1.92 | 5.55
10 | COc1ccc2c(O)c(/C=C3\N=Nc4ncccc43)oc2c1C[C@@H]1CCNC[C@H]1F | 0.141 | 0.993 | 0.336 | 2.94 | 0.442 | 1.79 | 0.314 | 1.4 | 1.89 | 5.23 | 0.118 | 1.09 | 0.428 | 1.99 | 0.458 | 2.22 | 0.378 | 1.94 | 0.34 | 1.12
11 | CCOc1ccc(C(C[N+](=O)[O-])Sc2ccccc2N)cc1 (centres undefined) | 3.67 | 18.9 | 18.3 | 32.3 | 2.97 | 11.9 | 3.27 | 10.2 | 12.3 | 24.7 | 1.71 | 6.04 | 1.89 | 3.94 | 3.23 | 13.4 | 2.8 | 17.4 | 1.73 | 4.45
12 | COc1ccccc1/C=C\C(=O)C1COCN1 (centres undefined) | – | > 100 | – | 57.4 | – | > 100 | – | 24.6 | – | 45.7 | – | 36.8 | – | 38.5 | – | 35.1 | – | 41.3 | – | 19.4
13 | CNC(=O)c1c(F)cccc1Nc1nc(Nc2cc3c(cc2OC)CCN3C(=O)CN(C)C)nc2[nH]ccc12 | 2.1 | 5.73 | 5.5 | 20.8 | 2.58 | 6.41 | 2.23 | 4.99 | 1.5 | 3.13 | 0.359 | 2.88 | 4.94 | 10.3 | 3.88 | 9.81 | 11.7 | 24.7 | 1.14 | 3.42
14 | CCCCCCCCCCNCCSS(=O)(=O)O | 1.86 | 3.98 | 1.86 | 3.58 | 2.61 | 7.28 | 1.55 | 2.95 | 5.83 | 19.6 | 1.81 | 3.38 | 2.31 | 5.21 | 1.86 | 3.6 | 2.23 | 4.22 | 1.95 | 4.32
